Usually EC50 stands for the midpoint of the concentration-response curve.

Results on 13 molecules are retold here after patent US9499550B2 (BRISTOL-MYERS SQUIBB COMPANY, priority 2012, dated 2016).

The test system of experiment [1] is HCV genotype 1b (Con1) replicon in HUH-7 cells. As to the kind of experiment: HCV replicon luciferase reporter assay, genotype 1b. It counts as cell-based. The settings on record: Hepatitis C virus, Huh-7, 72 h, HCV genotype 1b replicon luciferase, 3 days incubation, read-out: LE_1b (EC50, range). Put shortly: (§1)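 Replicon inhibition for both genotypes was measured as Renilla luciferase signal (EnduRen, 7.5 μM final, 2 h) after 3-day, 37° C exposure of replicon-bearing HUH-7 cells in 4% FCS DMEM, 0.5% DMSO. The 1b construct carries S1179I; the 1a H77 construct carries P1496L and S2204I. Twenty-point, 3-fold dilutions were fitted four-parametrically for EC50, and CC50 was taken from multiplexed Cell Titer-Blue.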
For orientation: Replicon systems follow genome replication, usually without infectious particles.

The test system of experiment [2] is HCV genotype 1a (H77 strain) replicon in HUH-7 cells. The experiment is described as follows: HCV replicon luciferase reporter assay, genotype 1a. The following applies: Hepatitis C virus, Huh-7, 72 h, HCV genotype 1a replicon luciferase, 3 days incubation, read-out: LE_1a (EC50, range). In kind it is cell-based. Put shortly: as §1

As for `C[C@@H]1CC/C=C\[C@@H]2C[C@@]2(C(=O)NS(=O)(=O)C2(CF)CC2)NC(=O)[C@@H]2C[C@@H](Oc3ncc(N4CCOCC4)c4ccccc34)CN2C(=O)[C@@H](NC(=O)OC(C)(C)C(C)(F)F)[C@H](C)C1` [Compound 5451, 3,3-difluoro-2-methylbutan-2-yl((2R,6S,7R,9R,13aS,14aR,16aS,Z)-14a-(((1-(fluoromethyl)cyclopropyl)sulfonyl)carbamoyl)-7,9-dimethyl-2-((4-morpholinoisoquinolin-1-yl)oxy)-5,16-dioxo-1,2,3,5,6,7,8,9,10,11,13a,14,14a,15,16,16a-hexadecahydrocyclopropa[e]pyrrolo[1,2-a][1,4]diazacyclopentadecin-6-yl)carbamate], the half-maximal effective concentration (EC50) in experiment [1] and in experiment [2] was 1.01 to 5 nM in each case.

Regarding `[2H]C([2H])([2H])C(OC(=O)N[C@@H]1C(=O)N2C[C@H](Oc3ncc(OC)c4ccc(F)cc34)C[C@H]2C(=O)N[C@]2(C(=O)NS(=O)(=O)C3(C)CC3)C[C@H]2/C=C\CC[C@@H](C)C[C@H]1CC)(C([2H])([2H])[2H])C(F)(F)F` [Compound 5453], the figures for the EC50 in experiment [1] and in experiment [2] were 0.51 to 1 nM and 1.01 to 5 nM, respectively.

Take `CC[C@@H]1C[C@H](C)CC/C=C\[C@@H]2C[C@@]2(C(=O)NS(=O)(=O)C2(C)CC2)NC(=O)[C@@H]2C[C@@H](Oc3ncc(OC)c4ccc(F)cc34)CN2C(=O)[C@H]1NC(=O)OC(C)(C)C(C)(F)F` [Compound 5455, 3,3-difluoro-2-methylbutan-2-yl((2R,6S,7R,9R,13aS,14aR,16aS,Z)-7-ethyl-2-((7-fluoro-4-methoxyisoquinolin-1-yl)oxy)-9-methyl-14a-(((1-methylcyclopropyl)sulfonyl)carbamoyl)-5,16-dioxo-1,2,3,5,6,7,8,9,10,11,13a,14,14a,15,16,16a-hexadecahydrocyclopropa[e]pyrrolo[1,2-a][1,4]diazacyclopentadecin-6-yl)carbamate]: the values for the EC50 in experiment [1] and in experiment [2] were 0.1 to 0.5 nM and 1.01 to 5 nM, respectively.

With `CC[C@@H]1C[C@H](C)CC/C=C\[C@@H]2C[C@@]2(C(=O)NS(=O)(=O)C2(C)CC2)NC(=O)[C@@H]2C[C@@H](Oc3ncc(N4CCOCC4)c4ccccc34)CN2C(=O)[C@H]1NC(=O)OC(C)(C)C(C)(F)F` [Compound 5457, 3,3-difluoro-2-methylbutan-2-yl((2R,6S,7R,9R,13aS,14aR,16aS,Z)-7-ethyl-9-methyl-14a-(((1-methylcyclopropyl)sulfonyl)carbamoyl)-2-((4-morpholinoisoquinolin-1-yl)oxy)-5,16-dioxo-1,2,3,5,6,7,8,9,10,11,13a,14,14a,15,16,16a-hexadecahydrocyclopropa[e]pyrrolo[1,2-a][1,4]diazacyclopentadecin-6-yl)carbamate], the results for the EC50 in experiment [1] and in experiment [2] were 0.51 to 1 nM and 1.01 to 5 nM, respectively.

On to `C[C@@H]1CC/C=C\[C@@H]2C[C@@]2(C(=O)NS(=O)(=O)C2(C)CC2)NC(=O)[C@@H]2C[C@@H](Oc3ncc(N4CCOCC4)c4ccccc34)CN2C(=O)[C@@H](NC(=O)OC(C)(C)C(C)(F)F)[C@H](C)C1` [Compound 5459, 3,3-difluoro-2-methylbutan-2-yl((2R,6S,7R,9R,13aS,14aR,16aS,Z)-7,9-dimethyl-14a-(((1-methylcyclopropyl)sulfonyl)carbamoyl)-2-((4-morpholinoisoquinolin-1-yl)oxy)-5,16-dioxo-1,2,3,5,6,7,8,9,10,11,13a,14,14a,15,16,16a-hexadecahydrocyclopropa[e]pyrrolo[1,2-a][1,4]diazacyclopentadecin-6-yl)carbamate], for which the 50% effective concentration (EC50) in experiment [1] and in experiment [2] was 1.01 to 5 nM throughout.

In the case of `CC[C@@H]1C[C@H](C)CC/C=C\[C@@H]2C[C@@]2(C(=O)NS(=O)(=O)C2(CF)CC2)NC(=O)[C@@H]2C[C@@H](Oc3nccc4c5c(ccc34)OCCO5)CN2C(=O)[C@H]1NC(=O)OC(C)(C)C(C)(F)F` [Compound 5461, 3,3-difluoro-2-methylbutan-2-yl((2R,6S,7R,9R,13aS,14aR,16aS,Z)-2-((2,3-dihydro-[1,4]dioxino[2,3-f]isoquinolin-7-yl)oxy)-7-ethyl-14a-(((1-(fluoromethyl)cyclopropyl)sulfonyl)carbamoyl)-9-methyl-5,16-dioxo-1,2,3,5,6,7,8,9,10,11,13a,14,14a,15,16,16a-hexadecahydrocyclopropa[e]pyrrolo[1,2-a][1,4]diazacyclopentadecin-6-yl)carbamate], the EC50 in experiment [1] and in experiment [2] was 1.01 to 5 nM each time.

Turning to `CC[C@@H]1C[C@H](C)CC/C=C\[C@@H]2C[C@@]2(C(=O)NS(=O)(=O)C2(CF)CC2)NC(=O)[C@@H]2C[C@@H](Oc3nccc4c5c(ccc34)N(C)CCO5)CN2C(=O)[C@H]1NC(=O)OC(C)(C)C(C)(F)F` [Compound 5463, 3,3-difluoro-2-methylbutan-2-yl((2R,6S,7R,9R,13aS,14aR,16aS,Z)-7-ethyl-14a-(((1-(fluoromethyl)cyclopropyl)sulfonyl)carbamoyl)-9-methyl-2-((4-methyl-3,4-dihydro-2H-[1,4]oxazino[2,3-f]isoquinolin-7-yl)oxy)-5,16-dioxo-1,2,3,5,6,7,8,9,10,11,13a,14,14a,15,16,16a-hexadecahydrocyclopropa[e]pyrrolo[1,2-a][1,4]diazacyclopentadecin-6-yl)carbamate], the concentration for a half-maximal effect (EC50) in experiment [1] and in experiment [2] was 5.01 to 35 nM in each case.

As to `CC[C@@H]1C[C@H](C)CC/C=C\[C@@H]2C[C@@]2(C(=O)NS(=O)(=O)C2(CF)CC2)NC(=O)[C@@H]2C[C@@H](Oc3nccc4c5c(ccc34)N(C)CCO5)CN2C(=O)[C@H]1NC(=O)OC(C)(C)C(F)(F)F` [Compound 5465, 1,1,1-trifluoro-2-methylpropan-2-yl((2R,6S,7R,9R,13aS,14aR,16aS,Z)-7-ethyl-14a-(((1-(fluoromethyl)cyclopropyl)sulfonyl)carbamoyl)-9-methyl-2-((4-methyl-3,4-dihydro-2H-[1,4]oxazino[2,3-f]isoquinolin-7-yl)oxy)-5,16-dioxo-1,2,3,5,6,7,8,9,10,11,13a,14,14a,15,16,16a-hexadecahydrocyclopropa[e]pyrrolo[1,2-a][1,4]diazacyclopentadecin-6-yl)carbamate], the EC50 in experiment [1] and in experiment [2] was 1.01 to 5 nM throughout.

For `[2H]C([2H])([2H])C(OC(=O)N[C@@H]1C(=O)N2C[C@H](Oc3ncc(OC)c4ccc(F)cc34)C[C@H]2C(=O)N[C@]2(C(=O)NS(=O)(=O)C3CC3)C[C@H]2/C=C\CC[C@@H](C)C[C@H]1CC)(C([2H])([2H])[2H])C(F)(F)F` [Compound 5467], the EC50 fell in the range of 0.1 to 0.5 nM in experiment [1] and 1.01 to 5 nM in experiment [2].

Regarding `CC[C@@H]1C[C@H](C)CC/C=C\[C@@H]2C[C@@]2(C(=O)NS(=O)(=O)C2CC2)NC(=O)[C@@H]2C[C@@H](Oc3ncc(OC)c4ccc(F)cc34)CN2C(=O)[C@H]1NC(=O)OC(C)(C)C(C)(F)F` [Compound 5469, 3,3-difluoro-2-methylbutan-2-yl((2R,6S,7R,9R,13aS,14aR,16aS,Z)-14a-((cyclopropylsulfonyl)carbamoyl)-7-ethyl-2-((7-fluoro-4-methoxyisoquinolin-1-yl)oxy)-9-methyl-5,16-dioxo-1,2,3,5,6,7,8,9,10,11,13a,14,14a,15,16,16a-hexadecahydrocyclopropa[e]pyrrolo[1,2-a][1,4]diazacyclopentadecin-6-yl)carbamate], the EC50 in experiment [1] lay within 0.1 to 0.5 nM; in experiment [2] it was 1.01 to 5 nM.

In the case of `[2H]C([2H])([2H])C(OC(=O)N[C@@H]1C(=O)N2C[C@H](Oc3nccc4cc(OC)c(F)cc34)C[C@H]2C(=O)N[C@]2(C(=O)NS(=O)(=O)C3CC3)C[C@H]2/C=C\CC[C@@H](C)C[C@H]1CC)(C([2H])([2H])[2H])C(F)(F)F` [Compound 5471], the results for the EC50 in experiment [1] and in experiment [2] were 0.1 to 0.5 nM and 1.01 to 5 nM, respectively.

Regarding `CC[C@@H]1C[C@@H](C)CC/C=C\[C@@H]2C[C@@]2(C(=O)NS(=O)(=O)C2CC2)NC(=O)[C@@H]2C[C@@H](Oc3nccc4cc(OC)c(F)cc34)CN2C(=O)[C@H]1NC(=O)OC(C)(C)C(C)(F)F` [Compound 5472, 3,3-difluoro-2-methylbutan-2-yl((2R,6S,7R,9S,13aS,14aR,16aS,Z)-14a-((cyclopropylsulfonyl)carbamoyl)-7-ethyl-2-((7-fluoro-6-methoxyisoquinolin-1-yl)oxy)-9-methyl-5,16-dioxo-1,2,3,5,6,7,8,9,10,11,13a,14,14a,15,16,16a-hexadecahydrocyclopropa[e]pyrrolo[1,2-a][1,4]diazacyclopentadecin-6-yl)carbamate], the half-maximal effective concentration (EC50) in experiment [1] and in experiment [2] was 1.01 to 5 nM throughout.

With `CC[C@@H]1C[C@H](C)CC/C=C\[C@@H]2C[C@@]2(C(=O)NS(=O)(=O)C2CC2)NC(=O)[C@@H]2C[C@@H](Oc3nccc4cc(OC)c(F)cc34)CN2C(=O)[C@H]1NC(=O)OC(C)(C)C(C)(F)F` [Compound 5473, 3,3-difluoro-2-methylbutan-2-yl((2R,6S,7R,9R,13aS,14aR,16aS,Z)-14a-((cyclopropylsulfonyl)carbamoyl)-7-ethyl-2-((7-fluoro-6-methoxyisoquinolin-1-yl)oxy)-9-methyl-5,16-dioxo-1,2,3,5,6,7,8,9,10,11,13a,14,14a,15,16,16a-hexadecahydrocyclopropa[e]pyrrolo[1,2-a][1,4]diazacyclopentadecin-6-yl)carbamate], the EC50 in experiment [1] was 0.1 to 0.5 nM; in experiment [2], 1.01 to 5 nM.
